In the supplement of paper PMC10307832:

Columns and labels:
Assay in all cases: relative viability (nuclei count vs DMSO), 5 days (fraction); higher = more cells survive
[1] = compound: CS(=O)(=O)c1ccc(-c2cnc(N)c(C(=O)Nc3ccccc3)n2)cc1 [VE-821] + CC(C)C[C@H](NC(=O)[C@H](Cc1ccccc1)NC(=O)c1cnccn1)B(O)O [Bortezomib] (partner 0.002 µM)
Summary of the method: (§1)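 Lung cancer cell lines in 1536-well plates got either a single drug or a fixed anchor-drug dose together with five library-drug doses (not always all listed) in √10 steps, by pin tool, on the day after seeding. Nuclei were counted after 5 days, and relative viability is the treated-to-vehicle ratio of nuclei counts. Values are medians of duplicate plates.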

[2] = compound: CS(=O)(=O)c1ccc(-c2cnc(N)c(C(=O)Nc3ccccc3)n2)cc1 [VE-821] + C[C@]1(O)C[C@@H](c2nc(-c3ccc4ccc(-c5ccccc5)nc4c3)c3c(N)nccn32)C1 [Linsitinib] (partner 1 µM)
Summary of the method: as §1

[3] = compound: CS(=O)(=O)c1ccc(C(=O)Nc2ccc(Cl)c(-c3ccccn3)c2)c(Cl)c1 [Vismodegib] + Nc1nc2[nH]cc(CCc3ccc(C(=O)N[C@@H](CCC(=O)O)C(=O)O)cc3)c2c(=O)[nH]1 [Pemetrexed] (partner 0.2 µM)
Summary of the method: as §1

[4] = compound: N#CC[C@H](C1CCCC1)n1cc(-c2ncnc3[nH]ccc23)cn1 [Ruxolitinib] + COc1cccc2cc(-c3nc([C@H]4CC[C@H](C(=O)O)CC4)n4ncnc(N)c34)[nH]c12 [OSI-027] (partner 0.5 µM)
Summary of the method: as §1

Cell Line | relative viability ([1]; first compound 0.08 µM) | relative viability ([1]; first compound 0.253 µM) | relative viability ([1]; first compound 0.8 µM) | relative viability ([1]; first compound 2.53 µM) | relative viability ([1]; first compound 8 µM) | relative viability ([2]; first compound 0.08 µM) | relative viability ([2]; first compound 0.253 µM) | relative viability ([2]; first compound 0.8 µM) | relative viability ([2]; first compound 2.53 µM) | relative viability ([2]; first compound 8 µM) | relative viability ([3]; first compound 0.08 µM) | relative viability ([3]; first compound 0.253 µM) | relative viability ([3]; first compound 0.8 µM) | relative viability ([3]; first compound 2.53 µM) | relative viability ([3]; first compound 8 µM) | relative viability ([4]; first compound 0.08 µM) | relative viability ([4]; first compound 0.253 µM) | relative viability ([4]; first compound 0.8 µM) | relative viability ([4]; first compound 2.53 µM) | relative viability ([4]; first compound 8 µM)
NCI-H1355 | 1.26 | 1.15 | 1.09 | 1.27 | 0.718 | 0.803 | 0.789 | 0.654 | 0.767 | 0.56 | 0.985 | 1.06 | 0.959 | 1.02 | 1.01 | 0.382 | 0.328 | 0.388 | 0.373 | 0.318
NCI-H1437 | 0.504 | 0.523 | 0.46 | 0.592 | 0.4 | 1.2 | 1.08 | 0.927 | 0.997 | 0.558 | 0.297 | 0.308 | 0.339 | 0.288 | 0.316 | 0.965 | 0.758 | 0.926 | 0.752 | 0.78
NCI-H1563 | 0.908 | 0.888 | 0.784 | 0.774 | 0.763 | 1.26 | 1.17 | 0.914 | 1.08 | 1.05 | 0.458 | 0.806 | 0.767 | 0.762 | 0.839 | 0.803 | 0.721 | 0.714 | 0.658 | 0.675
NCI-H1651 | 0.978 | 0.964 | 1.07 | 1.04 | 0.921 | 1.01 | 0.999 | 0.847 | 0.986 | 0.737 | 0.518 | 0.65 | 0.594 | 0.473 | 0.48 | 0.774 | 0.718 | 0.842 | 0.659 | 0.723
NCI-H1666 | 0.942 | 0.864 | 0.755 | 0.736 | 0.549 | 0.765 | 0.884 | 0.777 | 0.857 | 0.553 | 0.852 | 0.912 | 0.836 | 0.843 | 0.925 | 0.877 | 0.842 | 0.864 | 0.782 | 0.968
NCI-H1734 | 1.3 | 0.873 | 0.878 | 0.879 | 0.611 | 0.97 | 0.917 | 0.737 | 0.969 | 0.617 | 0.433 | 0.399 | 0.433 | 0.429 | 0.414 | 0.586 | 0.491 | 0.671 | 0.417 | 0.637
NCI-H1755 | 1.01 | 0.95 | 0.941 | 0.898 | 0.79 | 1.05 | 0.978 | 0.795 | 0.958 | 0.898 | 0.441 | 0.417 | 0.365 | 0.426 | 0.432 | 0.748 | 0.732 | 0.683 | 0.606 | 0.566
NCI-H1792 | 1.25 | 1.05 | 0.938 | 1.01 | 0.947 | 0.55 | 0.711 | 0.438 | 0.553 | 0.421 | 0.927 | 0.881 | 0.673 | 0.773 | 0.698 | 0.694 | 0.624 | 0.675 | 0.529 | 0.6
NCI-H1915 | 0.967 | 0.958 | 1.03 | 0.999 | 0.962 | 1.09 | 1.16 | 1.13 | 1.18 | 0.972 | 0.464 | 0.434 | 0.515 | 0.444 | 0.49 | 0.622 | 0.619 | 0.663 | 0.463 | 0.464
NCI-H1975 | 0.482 | 0.333 | 0.381 | 0.393 | 0.347 | 0.932 | 0.92 | 0.876 | 0.862 | 0.658 | 0.309 | 0.264 | 0.293 | 0.263 | 0.287 | 0.734 | 0.699 | 0.639 | 0.485 | 0.473
NCI-H1993 | 1.25 | 0.869 | 0.967 | 1.16 | 0.812 | 0.729 | 0.668 | 0.764 | 0.697 | 0.595 | 0.559 | 0.583 | 0.564 | 0.68 | 0.63 | 0.535 | 0.549 | 0.538 | 0.584 | 0.541
NCI-H2009 | 0.952 | 0.967 | 0.993 | 1.07 | 0.814 | 1.23 | 1.19 | 1.12 | 1.22 | 1.23 | 1.02 | 1.03 | 1.03 | 0.941 | 0.965 | 0.668 | 0.609 | 0.789 | 0.54 | 0.281
NCI-H2023 | 1.08 | 0.902 | 0.763 | 0.549 | 0.218 | 0.779 | 0.642 | 0.329 | 0.539 | 0.225 | 0.256 | 0.216 | 0.219 | 0.235 | 0.248 | 0.455 | 0.298 | 0.556 | 0.343 | 0.411
